Results reported in patent publication EP4810492A1, “NMT INHIBITOR, PREPARATION METHOD THEREFOR, AND USE THEREOF” (Nanjing Synnocare Pharmaceutical Technology Co., Ltd., priority 2023, dated 2025).
Where two headings read alike, the source gives them in different places.

Tests used:
MV-4-11 tumors = assay: In vivo anti-tumor efficacy in MV-4-11 xenograft mouse model; conditions: female BALB/c nude mice, PO QD 30 mg/kg, Figure 2
Excerpt: (§1) To evaluate the effect of the compounds of the present invention on tumor growth, an MV-4-11 human myelomonocytic leukemia xenograft mouse model was established. Female BALB/c nude mice were procured from Shanghai Jihui Laboratory Animal Care Co., Ltd. Upon arrival, the mice were 6-7 weeks old and weighed 18-22 g. They were housed in specific pathogen-free (SPF) individually ventilated cages (IVC) at a density of 2-6 mice per cage, with ad libitum access to standard diet and water. The housing environment was maintained at 20 - 26 °C (68 - 79 °F) with a relative humidity of 40-70%, under a 12-hour light/dark cycle (lights on from 05:00 to 17:00). The study commenced after a one-week acclimatization period.
(§2) Human myelomonocytic leukemia MV-4-11 cells (ATCC, CRL-9591) were maintained in suspension culture using IMDM medium (Gibco, 12440-053) supplemented with 10% heat-inactivated fetal bovine serum (FBS; Gibco, 10099-141C) at 37 °C in a 5% CO2 atmosphere. Cells were passaged 2-3 times per week. Upon reaching the exponential growth phase, cells were harvested, counted, and inoculated subcutaneously into the right dorsal flank of female nude mice. Each mouse received a 200 µL suspension containing 8 × 10^6 MV-4-11 cells (100 µL cell suspension + 100 µL Matrigel basement membrane matrix, Corning, 354234). Thirteen days post-inoculation, when subcutaneous tumor volumes reached 100 - 300 mm^3 , tumor-bearing mice with appropriate morphology and uniform size were selected. Using stratified randomization, mice were assigned to experimental groups (n = 5 per group). Oral administration (PO, once daily [QD]) was initiated on the day of grouping, with all compounds of the present invention dosed at 30 mg/kg. During the dosing period, tumor diameters were measured twice weekly using digital calipers, and body weights were recorded. In the posttreatment observation period, tumor diameters and body weights were measured once weekly. Tumor volume (V) was calculated using the formula: V = 0.5 *a * b^2 , where a represents the long diameter and b represents the short diameter of the tumor.
(§3) The anti-tumor efficacy of the compounds was evaluated using the tumor growth inhibition percentage (TGI%), calculated by the formula: TGI(%) = [1 - (TVi - TV0) / (TVVi - TVV0)] *100%, where TV0 and TVV0 represent the mean tumor volumes on day 0 for the treatment and control groups, respectively, and TVi and TVVi represent the mean tumor volumes on day i for the treatment and control groups, respectively. Data were plotted using GraphPad Prism software. Tumor volume and body weight data are expressed as mean ± SEM and plotted as a function of time.

[1] = Body weight of MV-4-11 xenograft model mice (tolerability); type: in vivo; conditions: female BALB/c nude mice, PO QD 30 mg/kg; for Body weight: Figure 1
Excerpt: as §1, §2, §3

NMT1 enzyme = target: T1, NMT1 enzyme (Homo sapiens, UniProt P30419); assay: Inhibitory activity on NMT1 enzyme catalysis (fluorescence intensity assay); type: biochemical
T1 sequence (P30419 1-496): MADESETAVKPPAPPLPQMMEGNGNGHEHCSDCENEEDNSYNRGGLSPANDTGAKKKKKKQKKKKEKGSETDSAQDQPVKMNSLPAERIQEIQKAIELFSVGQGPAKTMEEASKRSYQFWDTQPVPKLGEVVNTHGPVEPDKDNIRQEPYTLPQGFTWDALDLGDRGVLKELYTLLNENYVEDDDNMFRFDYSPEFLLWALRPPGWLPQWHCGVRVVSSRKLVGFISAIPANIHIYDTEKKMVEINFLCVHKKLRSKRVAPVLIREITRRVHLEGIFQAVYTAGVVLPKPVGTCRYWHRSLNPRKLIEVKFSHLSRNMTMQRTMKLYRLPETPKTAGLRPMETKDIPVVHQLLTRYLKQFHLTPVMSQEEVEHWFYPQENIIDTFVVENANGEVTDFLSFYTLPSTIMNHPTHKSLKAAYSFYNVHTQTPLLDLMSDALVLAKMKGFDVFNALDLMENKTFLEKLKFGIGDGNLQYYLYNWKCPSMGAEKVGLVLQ
Procedure: This study evaluated the ability of the compounds of the invention to inhibit NMT1 catalytic activity in vitro. […] The final concentration of the NMT1 enzyme was 6 nM, the final concentration of CPM (Reactive thiol fluorescence probe, Invitrogen, D346) was 1 µM, the final concentration of HSPP60 SRC was 20 µM, and the final concentration of DMSO was 0.5%.
Compounds were dissolved in DMSO to obtain 10 mM stock solutions. Dose-response solutions were prepared with a top endpoint compound concentration of 3 mM, followed by three-fold serial dilutions in DMSO, totaling ten data points. […] Then, 2.5 µL of the NMT1 enzyme working solution was added to the 384-well assay plate, followed by incubation at 25 °C for 10 minutes. Subsequently, 5 µL of the CPM and myristoyl-CoA working solution was added, the plate was centrifuged at 1000 rpm for 1 minute, and then 2.5 µL of the HSPP60 SRC working solution was added to initiate the reaction. The reaction was incubated at 25 °C for 45 minutes.
The IC50 curve of the compounds was fitted using the software XLfit 5.5.0 according to the nonlinear regression equation.

[2] = Plasma concentrations in mice following oral administration; conditions: for concentration at 1 h / concentration at 4 h / concentration at 8 h: ICR, mouse, po, 10 mg/kg
Excerpt: This study evaluated the plasma concentrations of the compounds of the present invention in mice. ICR mice were procured from JOINN Laboratories (Suzhou) Co., Ltd. At the initiation of dosing, the animals were 6-8 weeks old and weighed 18-25 g. Mice were housed in transparent plastic cages (400 mm*240 mm*200 mm). The animal facility maintained a 12-hour light/12-hour dark cycle (lights on 07:00-19:00) using fluorescent lighting. The dark period may be intermittently interrupted as required for study-related activities. Ambient temperature and relative humidity were controlled within 20-26 °C and 40-70%, respectively. Animals were fed certified rodent chow and provided with drinking water filtered and sterilized through an ultrapure water system. All animals had ad libitum access to water throughout the study. Animals were fasted for at least 12 hours prior to dosing, and food was restored 4 hours post-dosing.
Prior to dosing, body weights were recorded, and healthy animals with similar weights were selected and randomly assigned to groups (n = 3 per group) based on body weight. The compounds were formulated in a 0.5% aqueous carboxymethyl cellulose (CMC) solution and administered orally at a single dose of 10 mg/kg. Blood samples (≥0.2 mL) were collected via venipuncture at 1 h and 4 h post-dose into EDTA-K2 anticoagulant tubes. Tubes were gently inverted to mix, immediately placed in an ice-water bath, and rapidly centrifuged at 4,000 rpm for 10 min at 4 °C to separate plasma. Plasma was stored at -70 °C until analysis.
Calibration curve and QC plasma samples: Working solutions for the calibration curve and QC samples were prepared using 80% methanol in water (Thermo Fisher) as the diluent. To prepare plasma calibration standards and QC samples, 5 µL of each working solution was added to 45 µL of blank plasma and mixed. To the prepared calibration and QC samples, 300 µL of internal standard solution (tolbutamide at 8 µg/mL in acetonitrile, Thermo Fisher) was added. […] The supernatant was collected and analyzed by liquid chromatography-tandem mass spectrometry (LC-MS/MS; AB Sciex API 5000).
Plasma sample pretreatment: After thawing at room temperature, 50 µL of each plasma sample was mixed with 300 µL of the internal standard solution (tolbutamide at 8 µg/mL in acetonitrile, Thermo Fisher). […] The supernatant was collected and analyzed by LC-MS/MS (AB Sciex API 5000).
Raw chromatograms, concentrations, and accuracy data were generated using Analyst software version 1.6.3.

MV-4-11 cells = assay: Anti-proliferative activity against MV-4-11 cells (cell viability chemiluminescence); type: cell-based; conditions: MV4-11, 72 h, MV-4-11 human monocytic leukemia cells, three days of exposure
Procedure: This study utilized a cell proliferation assay to analyze the cytotoxicity of MV-4-11 human monocytic leukemia cells after three days of exposure to NMT1 inhibitors. The MV-4-11 cell line was purchased from Nanjing Cobuilder Biotechnology Co., Ltd., and cultured in IMDM medium (Viva cell) in an incubator (Thermo) at 37 °C with 5% CO2. In this experiment, NMT1 inhibitors were dissolved in DMSO to obtain 600 µM stock solutions. Dose-response solutions were prepared with a top endpoint compound concentration of 3 µM, followed by three-fold serial dilutions in DMSO, totaling eight data points. The final concentration of DMSO was 0.5%.
MV-4-11 cells were seeded into a white 96-well plate, 80 µL of cell suspension per well, containing 6000 MV-4-11 cells. The cell plate was placed in the CO2 incubator for overnight culture. Then, 20 µL of NMT1 inhibitor solutions at different concentrations were added to the wells. The 96-well plate was placed back into the incubator for three days. Another cell plate was prepared, and the signal was read on the day of drug addition to serve as the maximum value (Max value in the equation below) for data analysis. To this cell plate, 25 µL of cell viability chemiluminescence detection reagent was added per well, followed by incubation at room temperature for 10 minutes to stabilize the luminescence signal. A multi-label analyzer was used for reading.
The raw data were converted into inhibition rates using the equation (Sample - Min) / (Max - Min) * 100%. The IC50 values were then determined by fitting a four-parameter curve (using the "log(inhibitor) vs. response - Variable slope" model in GraphPad Prism). Min: wells treated with 0.5% DMSO; Max: Day 0 wells. Table 1 provides the inhibitory activity of the compounds of the invention on MV-4-11 cell proliferation. Table 1: Compound Inhibitory Activity against NMT1 Enzyme (IC50) and Anti-proliferative Activity against MV-4-11 Cell line (IC50)

[3] = 6 nM NMT1 enzyme, 1.25 µM myristoyl-CoA, 20 µM HSPP60 SRC peptide, 45 minutes at 25 °C, read-out: NMT1 (IC50)

| IC50 (NMT1 enzyme; [3]) | concentration at 1 h [2] | concentration at 4 h [2] | concentration at 8 h [2] | IC50 (MV-4-11 cells) | SMILES | Tumor volume / growth of MV-4-11 tumors (MV-4-11 tumors) | Body weight [1] | IC50 (NMT1 enzyme) | 1 h Concentration ([2]; ICR mice, oral single dose of 10 mg/kg in 0.5% CMC, 1 h post-dose, Mean ± SEM, n = 3) | 4 h Concentration ([2]; ICR mice, oral single dose of 10 mg/kg in 0.5% CMC, 4 h post-dose, Mean ± SEM, n = 3) | 8 h Concentration ([2]; ICR mice, oral single dose of 10 mg/kg in 0.5% CMC, 8 h post-dose, Mean ± SEM, n = 3) | IC50 (MV-4-11 cells; Homo sapiens) | Weight loss ([1]; later phase) |
| --- | --- | --- | --- | --- | --- | --- | --- | --- | --- | --- | --- | --- | --- |
| 3.09 nM | 2890 ± 858 ng/mL | 1960 ± 190 ng/mL | 915 ± 97 ng/mL | 5.43 nM | CCc1nn(C)c(C)c1NS(=O)(=O)c1c(Cl)cc(-c2ccc3sc4c(c3c2)CNCC4)cc1Cl [Compound 2] | significantly inhibited the growth of MV-4-11 tumors and induced tumor regression | slight decrease in body weight during the early phase of dosing, which subsequently returned to normal |  |  |  |  |  |  |
| 3.45 nM | 2407 ± 21 ng/mL | 1980 ± 417 ng/mL | 1140 ± 551 ng/mL | 15 nM | Cc1c(NS(=O)(=O)c2c(Cl)cc(-c3ccc4sc5c(c4c3)CNCC5)cc2Cl)c(CC(C)C)nn1C [Compound 3] | significantly inhibited the growth of MV-4-11 tumors and induced tumor regression | no weight loss throughout the study |  |  |  |  |  |  |
|  |  |  |  |  | Cc1c(NS(=O)(=O)c2c(Cl)cc(-c3ccc4sc5c(c4c3)CNCC5)cc2Cl)c(CC#N)nn1C [Compound 13] | significantly inhibited the growth of MV-4-11 tumors and induced tumor regression | no weight loss throughout the study | 3.21 nM | 1893 ± 196 ng/mL | 623 ± 109 ng/mL | 334 ± 83 ng/mL | 19.3 nM |  |
| 5.38 nM | 2970 ± 855 ng/mL | 3260 ± 876 ng/mL | 1960 ± 467 ng/mL | 43.7 nM | Cc1c(NS(=O)(=O)c2c(Cl)cc(-c3ccc4oc5c(c4c3)CNCC5)cc2Cl)c(CC(C)C)nn1C [Compound 45] | significantly inhibited the growth of MV-4-11 tumors and induced tumor regression | slight weight loss in the later phase |  |  |  |  |  | ≤ 10% |
